Data set [1] in a line: Intravenous pharmacokinetics of ETX1317. In kind it is in vivo, monkey. The protocol:
Intravenous pharmacokinetics of ETX1317 investigated in jugular vein cannulated male Sprague–Dawley rats (Charles River Laboratories, n = 3/route) at a dose of 10 mg/kg formulated in 0.9% saline. Oral pharmacokinetics of ETX0282 was evaluated at a 10 mg/kg equivalent dose of ETX1317 formulated in 25:75 PEG 400:WFI. The pH of each formulation was verified to fall within a range of 4–7 and were confirmed to be in solution prior to dosing. Potency was verified by LC/MS/MS. Dose volumes were 5 and 10 mL/kg for ETX1317(i.v.) and ETX0282(p.o.), respectively for rats. In both dog (male, 3/route) and monkey (male, 3/route) studies, i.v. and p.o. doses were formulated on 25:75 PEG 400:WFI (pH ∼5) and administered at a dose of ∼1 mg/kg. Dose volume was 1 mL/kg for both routes in dogs and monkeys with the i.v. dose infused over 15 min. For oral doses, gavage tubes were flushed with 10 mL after administration of the dose. i.v. doses were sterile-filtered through 0.22 μm PVDF membrane prior to administration into the cephalic vein.
Blood sampling (∼1 mL) for dogs and monkeys was carried out via venipuncture of the jugular vein at the following time points:
i.v.: pre-dose, 0.083, 0.25 (prior to end of infusion), 0.5, 1, 1.5, 2, 4, 6, 8, 12, and 24 h post-dose
Blood samples were centrifuged at 3200 rpm for 10 min at approximately 5 °C. Plasma samples (500 μL) were transferred to 96-well plate tubes (MatrixTech, 0.5 mL). An equal amount (500 μL) of SIGMAFAST protease inhibitor solution (1 tablet dissolved in 10 mL distilled water, Sigma-Aldrich Part No. S8820) was added as a preservative to the 96-well plate tubes resulting in a 1:1 dilution. Diluted plasma samples were stored at −80 ± 10 °C.
Urine collection was collected directly into Nalgene bottles placed under metabolism cages with frozen ice packs to chill urine over the collection interval. Urine was collected 0–12, and 12–24 h post-dose. Following collection of each urine sample, the total urine weight was recorded and 3 mL aliquots were retained for LC/MS/MS analysis.
Non-compartmental analysis of time vs concentration data for ETX1317, ETX0282, CPD, and CPDP was completed using WinNonlin 8.1 (Pharsite Corporation, Mountain View CA). The maximum concentration (Cmax) was the highest observed concentration; Tmax was the earliest time at which Cmax occurred; and the elimination half-life was estimated as ln 2/kel, where kel is the elimination rate constant derived from the slope of the log concentration versus time profile. The area under the concentration–time curve from 0 h to the last time point (AUC0-tlast) was calculated by linear trapezoidal approximation. Clearance (CL) was estimated as Dose/AUC0-tlast and the steady state volume of distribution (Vd,ss) was estimated as CL* MRT, where MRT = AUMC/AUC (MRT = mean residence time and AUMC = area under the moment curve). Oral bioavailability (F) was determined from ETX1317 concentrations and normalizing doses to free acid equivalence, where F = AUCp.o.*(dosei.v.)/AUCi.v.*(dosep.o.).

A short description of data set [2]: Plasma protein binding. The format is in vitro ADME, monkey. The protocol: Plasma protein binding was determined by rapid equilibrium dialysis. Plasma was freshly prepared from blood samples drawn in to EDTA (anticoagulant) containing tubes. Plasma was prepared using a table-top centrifuge and spun per instruction of the tube manufacturer and specifications (Beckton, Dickinson and Company, Franklin Lakes, NJ) and placed on ice prior to use.
Pooled plasma samples were centrifuged at 2000 rpm (approximately 1400g) for 15 min at 4 °C to remove debris. Approximately 90% of the clear supernatant fraction was transferred to a separate tube. Samples (500 μL) were then spiked with a 100× stock solution 100 μM, 0.5 mM, and 10 mM ETX1317 in DMSO respectively for 1, 5, and 100 μM final concentrations, transferred to the top of the filter chambers, and allowed to equilibrate for 15 min prior to centrifugation. The filtrate tubes were centrifuged at 14000g for 15 min at 4 °C. Next, 50 μL of the filtrate was precipitated with 300 μL of acetonitrile containing 250 ng/mL of carbutamide as the internal standard and the samples were analyzed by LC/MS/MS analysis.

The subject of data set [3] is K. pneumoniae ARC4486. Nature of the data set: MIC, broth microdilution (CLSI). The note with it: Klebsiella pneumoniae, combination at 1:2 ratio cefpodoxime:ETX1317, MIC of CPD. The format is cell-based. As for the experimental part: (§1) MICs were determined utilizing a 1:2 ratio of cefpodoxime:ETX1317. […] The isolates utilized in the present study (Table 1) were broadly insensitive to CPD, presumably due to the presence of ESBLs and carbapenemases expressed in these strains. The addition of ETX1317 restored CPD activity to ≤1 μg/mL across all the tested isolates.
(§2) The MIC of each isolate was determined using the broth microdilution method following CLSI guidelines of document M07-A7 (CLSI M07-A7).
A general note: In broth dilution the organism is exposed to a series of concentrations in liquid medium.

In data set [4] the test system is K. pneumoniae ARC5118. As to the kind of experiment: MIC, broth microdilution (CLSI). The note with it: Klebsiella pneumoniae, ARC5118; combination at 1:2 ratio cefpodoxime:ETX1317, MIC of CPD. In kind it is cell-based. The protocol: as §1, §2
Data set [5] concerns K. pneumoniae ARC4420. As to the kind of experiment: MIC, broth microdilution (CLSI). As to conditions: Klebsiella pneumoniae, combination at 1:2 ratio cefpodoxime:ETX1317, MIC of CPD. The format is cell-based. As for the experimental part:
as §1, §2

Setting [6] is: male, monkey, plasma, iv, i.v. 0.87 mg/kg.

Like-named read-outs stand apart in the source and are kept apart here.

The AUC is concentration integrated over time. The Cmax is the highest concentration seen after dosing. In general, half-life refers to the time in which the quantity being followed falls by half. The low end stands for fast loss, the high end for slow loss. As a reminder, the Vd is the apparent volume that relates the amount in the body to the concentration in plasma or blood. The term MIC denotes the smallest concentration in the dilution series that meets the test's criterion for growth inhibition. For the compound `CC1=C[C@@H](C(N)=O)N2C[C@@H]1N(O[C@H](F)C(=O)O)C2=O` [ETX1317], the “renal clearance as % of total clearance” value in data set [1] (based upon excretion in the urine, range 23–63%) is given as approximately 40%. For the same compound, the AUC in data set [1] (setting [6]) came out at 2680 ± 210 ng·h/mL. The compound further displayed a Cmax in data set [1] (setting [6]) of 3120 ± 230 ng/mL. This compound gave a half-life in data set [1] (setting [6]) of 66 ± 6 min. Besides, the clearance in data set [1] (male, monkey, plasma, iv, i.v. 0.87 mg/kg, read-out: CL) was 5.7 ± 0.7 mL/min/kg; in data set [1] (male, monkey, urine and plasma, iv, i.v. 0.87 mg/kg, read-out: renal CL) it was 2.2 mL/min/kg. The Vd in data set [1] (male, monkey, plasma, iv, i.v. 0.87 mg/kg, read-out: Vd,ss) amounted to 0.31 ± 0.02 L/kg. Further, the Proportion unbound was found to be 77% in data set [2] (1 µM) and 97% in data set [2] (5 µM). Also, the MIC in data set [3] was 32 µg/mL; in data set [4] it was 32 µg/mL; in data set [5], 16 µg/mL.

The record behind these values is paper PMC7297445, “Pharmacokinetic/Pharmacodynamic Determination and Preclinical Pharmacokinetics of the β-Lactamase Inhibitor ETX1317 and Its Orally Available Prodrug ETX0282” (ACS Infectious Diseases, 2020).
